Consider twelve compounds from patent US20130337564A1, “Treatment of Pluripotent Cells” (Janssen Biotech, Inc., priority 2012, published 2013).

Molecules are shown by their SMILES. Several values for one entry are separate records, joined by “and”; a condition that tells them apart may be missing. Identical values can stand only once.

One may read the viability as a read-out of living cells in per cent, often relative to untreated cells.

What all share (format): cell-based
The test system of series [1] is cells expressing pluripotency markers derived from human embryonic stem cells. Put plainly: MTS viability (toxicity) assay of cells expressing pluripotency markers. Particulars: for viability at 10 µM: Homo sapiens, Embryonic stem cell; for viability at 10 µM / % Control: viability of cells expressing pluripotency markers, relative to control; for Raw data (duplicate), first replicate / Raw data (duplicate), second replicate: MTS viability assay raw reading; for Raw data (duplicate), first replicate: replicate 1; for Raw data (duplicate), second replicate: replicate 2; for Average: average of duplicate MTS raw readings; for Average of raw data (duplicate), optical density at 490 nm / % Control (percentage viability of control): MTS on day 4; for % Control (percentage viability of control): relative to Activin A + Wnt3a positive control. Set-up: Raw data (duplicate), first replicate / Average: unit not given here. A digest of the protocol: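 A GSK-3B inhibitor library was screened for toxicity to pluripotency-marker-expressing cells. Compound was given in DMEM:F12 with 0.5% FCS and 100 ng/ml Activin A for two days, then replaced by medium with 2% FCS and Activin A. On day 4, MTS absorbance at 490 nm gave viability as percent of Activin A plus Wnt3a control wells.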
(Formazan colour is commonly taken as a measure of viable cells.)

In series [2] the test system is Sox17 expression in human embryonic stem cells (H9 line). Put plainly: High content screening assay: Sox17 protein expression (differentiation). Particulars: for fold induction at 10 µM: Homo sapiens, Embryonic stem cell, 10 μM test compound with 100 ng/ml activin A on days 1-2, H9, total intensity by IN Cell Analyzer, strong and moderate hits, read-out: SOX17 Expression, Fold over Wnt 3a/AA control. An outline of the steps:
(§1)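 H9 hESCs on MATRIGEL treated days 1-2 with 10 μM compound in DMEM:F12, 0.5% FCS, 100 ng/ml activin A; days 3-4 with 2% FCS plus activin A without compound. Fixed cells immunostained for Sox17 or HNF-3beta with Draq5 nuclear counterstain. Cell number and staining intensity quantified by high-content imaging, 12 fields/well.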

For series [3], the system named is HNF-3beta expression in human embryonic stem cells (H9 line). Put plainly: High content screening assay: HNF-3beta protein expression (differentiation). The settings on record: for fold induction at 10 µM: Homo sapiens, Embryonic stem cell, 10 μM test compound with 100 ng/ml activin A on days 1-2, H9, total intensity by IN Cell Analyzer, strong and moderate hits, read-out: HNF3β Expression, Fold over Wnt 3a/AA control. A digest of the protocol:
as §1

Where [4] appears, read: total intensity normalised to Wnt 3a/AA control.

For `O=C1NC(=O)C(c2cn(CCCO)c3ncccc23)=C1c1cnccn1` [Compound 47, 3-[1-(3-Hydroxypropyl)-1H-pyrrolo[2,3-b]pyridin-3-yl]-4-pyrazin-2-yl-1H-pyrrole-2,5-dione], the viability at 10 µM in series [1] was 104%. Besides, in series [2], the fold induction at 10 µM was 1.02 and the “SOX-17 Expression Total Intensity” value came to 382680000. Further, in series [3], the fold induction at 10 µM is 1.22 and the “HNF-3b Expression Total Intensity” value is recorded as 560475000.
On to `COc1ccccc1C1=C(c2cn(CCCNC(=O)OC(C)(C)C)c3ncccc23)C(=O)NC1=O` [Compound 26, 1,1-Dimethylethyl [3-(3-{4-[2-(methyloxy)phenyl]-2,5-dioxo-2,5-dihydro-1H-pyrrol-3-yl}-1H-pyrrolo[2,3-b]pyridin-1-yl)propyl]carbamate], for which, in series [1], the viability at 10 µM stood at 76.4%; the “Raw data (duplicate), first replicate” value came out at 0.568; the “Raw data (duplicate), second replicate” value was found to be 0.709; the Average amounted to 0.639. Further, the “SOX-17 Expression Total Intensity” value in series [2] is recorded as 15714170. Also, in series [3], the “HNF-3b Expression Total Intensity” value is given as 15725984.
Regarding `O=C1NC(=O)C2=C1c1cn(c3ccccc13)CCOCCOCCn1cc2c2ccccc21` [Compound 164, 6,7,9,10,12,13-Hexahydro-20H-5,23:14,19-di(metheno)dibenzo[h,n]pyrrolo[3,4-k][1,4,7,16]dioxadiazacyclooctadecine-20,22(21H)-dione], in series [1], the “Raw data (duplicate), first replicate” value worked out at 0.603; the “Raw data (duplicate), second replicate” value was found to be 0.584; the Average turned out to be 0.593; the “% Control” value is 69.4%. Also, the “SOX-17 Expression Total Intensity” value in series [2] is 85949. In series [2] (setting [4]), the “SOX-17 Expression Fold over Wnt 3a/AA control” value is on record as 0.0028 fold. In series [3], the “HNF-3b Expression Total Intensity” value is 1300640. For the same compound, in series [3] (setting [4]), the “HNF-3b Expression Fold over Wnt 3a/AA control” value stood at 0.0475 fold.
As for `O=C1NC(=O)C(c2cn(CCCO)c3ncccc23)=C1c1cn(CCCO)cn1` [Compound 182, 3-[1-(3-Hydroxypropyl)-1H-imidazol-4-yl]-4-[1-(3-hydroxypropyl)-1H-pyrrolo[2,3-b]pyridin-3-yl]-1H-pyrrole-2,5-dione], in series [1], the viability at 10 µM came to 100%; the “Raw data (duplicate), first replicate” value is reported as 0.802; the “Raw data (duplicate), second replicate” value came to 0.801; the Average stood at 0.802. The “SOX-17 Expression Total Intensity” value in series [2] amounted to 0. For the same compound, the “HNF-3b Expression Total Intensity” value in series [3] stood at 8880858.
As to `COc1ccccc1C1=C(c2cn(-c3ccc4ccccc4c3)c3ncccc23)C(=O)NC1=O` [Compound 23, 3-[2-(Methyloxy)phenyl]-4-(1-naphthalen-2-yl-1H-pyrrolo[2,3-b]pyridin-3-yl)-1H-pyrrole-2,5-dione], in series [1], the viability at 10 µM stood at 102%; the “Raw data (duplicate), first replicate” value is on record as 0.882; the “Raw data (duplicate), second replicate” value worked out at 0.748; the Average turned out to be 0.815. In series [2], the “SOX-17 Expression Total Intensity” value was determined as 7121122. In addition, the “HNF-3b Expression Total Intensity” value in series [3] was 65100086.
Regarding `O=C1NC(=O)C(c2cn(-c3cncnc3)c3ccccc23)=C1c1cn(CCO)c2ccccc12` [Compound 230, 3-[1-(2-Hydroxyethyl)-1H-indol-3-yl]-4-(1-pyrimidin-5-yl-1H-indol-3-yl)-1H-pyrrole-2,5-dione], in series [1], the viability at 10 µM was 81.8%; the “Raw data (duplicate), first replicate” value is listed as 0.680; the “Raw data (duplicate), second replicate” value is reported as 0.663; the Average turned out to be 0.671. In series [2], the fold induction at 10 µM turned out to be 1.14 and the “SOX-17 Expression Total Intensity” value turned out to be 1104750000. In series [3], the fold induction at 10 µM was found to be 0.95 and the “HNF-3b Expression Total Intensity” value was found to be 1052345000.
On to `O=C1NC(=O)C(c2cn(CCCO)c3ncccc23)=C1c1cc(Cl)sc1Cl` [Compound 18, 3-(2,5-Dichlorothiophen-3-yl)-4-[1-(3-hydroxypropyl)-1H-pyrrolo[2,3-b]pyridin-3-yl]-1H-pyrrole-2,5-dione], for which, in series [1], the viability at 10 µM amounted to 69.9%; the “Raw data (duplicate), first replicate” value worked out at 0.637; the “Raw data (duplicate), second replicate” value turned out to be 0.554; the Average was 0.595. Moreover, in series [2], the “SOX-17 Expression Total Intensity” value is 0. In addition, the “HNF-3b Expression Total Intensity” value in series [3] stood at 28439.
Turning to `CCN1CCOCCOCCn2cc(c3ccccc32)C2=C(C(=O)NC2=O)c2cn(c3ccccc23)CC1` [Compound 103, 14-Ethyl-6,7,9,10,13,14,15,16-octahydro-12H,23H-5,26:17,22-di(metheno)dibenzo[k,q]pyrrolo[3,4-n][1,4,7,10,19]dioxatriacyclohenicosine-23,25(24H)-dione], in series [1], the “Raw data (duplicate), first replicate” value worked out at 0.141; the “Raw data (duplicate), second replicate” value was 0.162; the Average came to 0.151; the “% Control” value stood at 4.3%. Besides, in series [1] (cmpd conc 2.5 μM), the “Average of raw data (duplicate), optical density at 490 nm” value (from here on “Average of raw data (duplicate)”) is 0.4737 and the “% Control (percentage viability of control)” value is given as 51.4%. For the same compound, in series [1] (cmpd conc 5 μM), the “Average of raw data (duplicate)” value worked out at 0.2618 and the “% Control (percentage viability of control)” value came to 19.7%. In series [1] (cmpd conc 10 μM), the “Average of raw data (duplicate)” value is listed as 0.1339 and the “% Control (percentage viability of control)” value amounted to 0.5%.
In the case of `CN1CCOCCOCCN(C)CCn2cc(c3ccccc32)C2=C(C(=O)NC2=O)c2cn(c3ccccc23)CC1` [Compound 112, 12,21-Dimethyl-11,12,13,14,16,17,20,21,22,23-decahydro-1H,10H,19H-9,4:24,29-di(metheno)dibenzo[k,q]pyrrolo[3,4-n][1,4,7,10,19,22]dioxatetraazacyclotetracosine-1,3(2H)-dione], in series [1], the “Raw data (duplicate), first replicate” value was found to be 0.981; the “Raw data (duplicate), second replicate” value is 1.056; the Average was 1.018; the “% Control” value is recorded as 145.3%. In series [1] (cmpd conc 2.5 μM), the “Average of raw data (duplicate)” value is listed as 0.8103 and the “% Control (percentage viability of control)” value is 101.9%. The “Average of raw data (duplicate)” value in series [1] (cmpd conc 5 μM) was 0.1283. In addition, in series [1] (cmpd conc 10 μM), the “Average of raw data (duplicate)” value came out at 0.1283.
In the case of `O=C1NC(=O)C2=C1c1cn(c3ccccc13)CCOCCOCCN(Cc1cccc3ccccc13)CCn1cc2c2ccccc21` [Compound 136, 14-(Naphthalen-1-ylmethyl)-6,7,9,10,13,14,15,16-octahydro-12H,23H-5,26:17,22-di(metheno)dibenzo[k,q]pyrrolo[3,4-n][1,4,7,10,19]dioxatriazacyclohenicosine-23,25(24H)-dione], in series [1], the “Raw data (duplicate), first replicate” value is 0.699 and 0.697; the “Raw data (duplicate), second replicate” value is 0.679 and 0.695; the Average was 0.689 and 0.696; the “% Control” value is 86.3% and 87.3%. In addition, in series [1] (cmpd conc 2.5 μM), the “Average of raw data (duplicate)” value turned out to be 0.8432 and the “% Control (percentage viability of control)” value came to 99.6%. Also, in series [1] (cmpd conc 5 μM), the “Average of raw data (duplicate)” value came to 0.7935 and the “% Control (percentage viability of control)” value was 92.7%. For the same compound, in series [1] (cmpd conc 10 μM), the “Average of raw data (duplicate)” value came to 0.8425 and the “% Control (percentage viability of control)” value is on record as 99.5%.
With `O=C1NC(=O)C2=C1c1cn(c3ccccc13)CCOCCOCCN(Cc1cccs1)CCn1cc2c2ccccc21` [Compound 133, 14-(2-Thienylmethyl)-6,7,9,10,13,14,15,16-octahydro-12H,23H-5,26:17,22-di(metheno)dibenzo[k,q]pyrrolo[3,4-n][1,4,7,10,19]dioxatriazacyclohenicosine-23,25(24H)-dione], in series [1], the “Raw data (duplicate), first replicate” value is 0.823; the “Raw data (duplicate), second replicate” value came out at 0.634; the Average came out at 0.728; the “% Control” value was 98.1%. Also, in series [1] (cmpd conc 2.5 μM), the “Average of raw data (duplicate)” value was found to be 0.7939 and the “% Control (percentage viability of control)” value is recorded as 92.8%. Besides, in series [1] (cmpd conc 5 μM), the “Average of raw data (duplicate)” value stood at 0.6661 and the “% Control (percentage viability of control)” value is recorded as 75.0%. Moreover, in series [1] (cmpd conc 10 μM), the “Average of raw data (duplicate)” value was found to be 0.3010 and the “% Control (percentage viability of control)” value was determined as 24.1%.
As for `CN1CCN(C)CCn2cc(c3ccccc32)C2=C(C(=O)NC2=O)c2cn(c3ccccc23)CC1` [Compound 111, 8,11-Dimethyl-6,7,8,9,10,11,12,13-octahydro-20H-5,23:14,19-di(metheno)dibenzo[k,q]pyrrolo[3,4-n][1,4,7,10]tetraazacyclooctadecine-20,22(21H)-dione], in series [1], the “Raw data (duplicate), first replicate” value is on record as 0.821; the “Raw data (duplicate), second replicate” value was found to be 0.841; the Average came to 0.831; the “% Control” value is on record as 108.0%. In series [1] (cmpd conc 2.5 μM), the “Average of raw data (duplicate)” value worked out at 0.8169 and the “% Control (percentage viability of control)” value is listed as 102.9%. In series [1] (cmpd conc 5 μM), the “Average of raw data (duplicate)” value was 0.7718 and the “% Control (percentage viability of control)” value stood at 96.1%. Also, in series [1] (cmpd conc 10 μM), the “Average of raw data (duplicate)” value was 0.6709 and the “% Control (percentage viability of control)” value was 81.0%.
